Test results taken from patent US9137998B2, “Pesticidal compositions and related methods” (DOW AGROSCIENCES LLC, priority 2013, dated 2015).

Legend:
[1] = test system: Green Peach Aphid (Myzus persicae) (GPA) (MYZUPE); assay: Bioassay for Green Peach Aphid (GPA), foliar spray on cabbage seedlings; assay type: in vivo; settings: 200 ppm foliar spray, graded after three days, Abbott corrected % control; for mortality at 200 ppm: Myzus persicae, 72 h, read-out: % Control (or Mortality) rating, GPA
Method: Cabbage seedlings grown in 3-inch pots, with 2-3 small (3-5 cm) true leaves, were used as test substrate. The seedlings were infested with 20-50 GPA (wingless adult and nymph stages) one day prior to chemical application. Four pots with individual seedlings were used for each treatment. Test compounds (2 mg) were dissolved in 2 mL of acetone/methanol (1:1) solvent, forming stock solutions of 1000 ppm test compound. The stock solutions were diluted 5× with 0.025% Tween 20 in H2O to obtain the solution at 200 ppm test compound. A hand-held aspirator-type sprayer was used for spraying a solution to both sides of […] leaves until runoff. Reference plants (solvent check) were sprayed with the diluent only containing 20% by volume of acetone/methanol (1:1) solvent. Treated plants were held in a holding room for three days at approximately 25° C. and ambient relative humidity (RH) prior to grading. Evaluation was conducted by counting the number of live aphids per plant under a microscope. Percent control was measured by using Abbott's correction formula (W. S. Abbott, “A Method of Computing the Effectiveness of an Insecticide” J. Econ. Entomol. 18 (1925), pp. 265-267) as follows. Corrected % Control=100*(X−Y)/X
X=No. of live aphids on solvent check plants and
Y=No. of live aphids on treated plants
Biological Data for Green Peach Aphid (GPA) (MYZUPE) and Sweetpotato Whitefly-crawler (WF) (BEMITA)” (See Table Section).

[2] = test system: Sweetpotato Whitefly-Crawler (Bemisia tabaci) (WF) (BEMITA); assay: Insecticidal test for Sweetpotato Whitefly-crawler (WF) in foliar spray assay on cotton plants; assay type: in vivo; settings: 200 ppm foliar spray, graded after 9 days, Abbott corrected % control; for mortality at 200 ppm: Bemisia tabaci, 216 h, read-out: % Control (or Mortality) rating, WF
Method: Cotton plants (Gossypium hirsutum) grown in 3-inch pots, with 1 small (4-5 cm) true leaves, were used as test substrate. The plants were infested with 200-400 whitefly eggs 4-5 days prior to chemical application. Four pots with individual plants were used for each treatment. Test compounds (2 mg) were dissolved in 1 mL of acetone solvent, forming stock solutions of 2000 ppm test compound. The stock solutions were diluted 10× with 0.025% Tween 20 in H2O (diluents) to obtain the solution at 200 ppm test compound. A hand-held aspirator-type sprayer was used for spraying a solution to both sides of cotton leaves until runoff. Reference plants (solvent check) were sprayed with the diluent only containing 10% by volume of acetone solvent. Treated plants were held in a holding room for 9 days at approximately 25° C. and ambient relative humidity (RH) prior to grading. Evaluation was conducted by counting the number of live 3-4 nymph stage per plant under a microscope. Percent control was measured by using Abbott's correction formula (W. S. Abbott, “A Method of Computing the Effectiveness of an Insecticide” J. Econ. Entomol. 18 (1925), pp. 265-26′7) as follows. Corrected % Control=100*(X−Y)/X
X=No. of live nymphs on solvent check plants and
Y=No. of live nymphs on treated plants. […]

Compound | % Control (or Mortality) rating, GPA [1] | % Control (or Mortality) rating, WF [2] | mortality at 200 ppm [1] | mortality at 200 ppm [2]
2-Methyl-N-(4-methyl-2-(pyridin-3-yl)thiazol-5-yl)-3-(methylsulfinyl)-N-(prop-2-yn-1-yl) propanamide [Compound P5] | A (80-100) | A (80-100) |  | 
4-Chloro-2-(5-fluoropyridin-3-yl)-N-(prop-2-yn-1-yl)thiazol-5-amine hydrochloride [CA1] | B (More than 0-Less than 80) | B (More than 0-Less than 80) |  | 
4-Chloro-N-(prop-2-yn-1-yl)-2-(pyrimidin-5-yl)thiazol-5-amine hydrochloride [CA2] | B (More than 0-Less than 80) | B (More than 0-Less than 80) |  | 
C#CCN(C(=O)OC(C)(C)C)c1sc(Cl)nc1Cl [CA3, tert-butyl (2,4-dichlorothiazol-5-yl)(prop-2-yn-1-yl)carbamate] |  |  | < 0% | 
C#CC(C)N(C(=O)OC(C)(C)C)c1sc(Br)nc1C (stereo not shown) [CA5, tert-butyl (2-bromo-4-methylthiazol-5-yl)(but-3-yn-2-yl)carbamate] |  |  | 0 to 80% | 0 to 80%
CC#CCN(C(=O)OC(C)(C)C)c1sc(Br)nc1C [CA6, tert-Butyl (2-bromo-4-methylthiazol-5-yl)(but-2-yn-1-yl)carbamate] |  |  | 0 to 80% | < 0%
C#CCN(C(=O)OC(C)(C)C)c1sc(-c2cccnc2)nc1C [CA7, tert-Butyl (4-methyl-2-(pyridin-3-yl)thiazol-5-yl)(prop-2-yn-1-yl) carbamate] |  |  | 80 to 100% | 80 to 100%
C#CCN(C(=O)OC(C)(C)C)c1sc(-c2cncc(F)c2)nc1C [CA8, tert-Butyl (2-(5-fluoropyridin-3-yl)-4-methylthiazol-5-yl)(prop-2-yn-1-yl) carbamate] |  |  | 0 to 80% | 80 to 100%
C#CCN(C(=O)OC(C)(C)C)c1sc(-c2cncc(F)c2)nc1Cl [CA9, tert-Butyl (4-chloro-2-(5-fluoropyridin-3-yl)thiazol-5-yl)(prop-2-yn-1-yl) carbamate] |  |  | 80 to 100% | 80 to 100%
C#CC(C)N(C(=O)OC(C)(C)C)c1sc(-c2cccnc2)nc1C (stereo not shown) [CA12, tert-Butyl but-3-yn-2-yl(4-methyl-2-(pyridin-3-yl)thiazol-5-yl)carbamate] |  |  | 80 to 100% | 80 to 100%
C#CCNc1sc(-c2cccnc2)nc1C [CA14, 4-Methyl-N-(prop-2-yn-1-yl)-2-(pyridin-3-yl)thiazol-5-amine] |  |  | 0 to 80% | 0 to 80%
C#CCN(C(=O)OC(C)(C)C)c1sc(-c2cccnc2)nc1Cl [Compound C3, tert-butyl (4-chloro-2-(pyridin-3-yl)thiazol-5-yl)(prop-2-yn-1-yl)carbamate] |  |  | 80 to 100% | 80 to 100%
C#CCN(C(=O)C1CC1)c1sc(-c2cccnc2)nc1Cl [Compound F2, N-(4-Chloro-2-(pyridin-3-yl)thiazol-5-yl)-N-(prop-2-yn-1-yl)cyclopropane carboxamide] |  |  | 80 to 100% | 80 to 100%
C#CCN(C(=O)CC(SC)C(F)(F)F)c1sc(-c2cccnc2)nc1Cl (stereo not shown) [Compound F3, N-(4-Chloro-2-(pyridin-3-yl)thiazol-5-yl)-4,4,4-trifluoro-3-(methylthio)-N-(prop-2-yn-1-yl) butanamide] |  |  | 80 to 100% | 80 to 100%
C#CCN(C(=O)CSC)c1sc(-c2cccnc2)nc1Cl [Compound F4, N-(4-Chloro-2-(pyridin-3-yl)thiazol-5-yl)-2-(methylthio)-N-(prop-2-yn-1-yl)acetamide] |  |  | 80 to 100% | 80 to 100%
C#CCN(C(=O)C1CC1(F)F)c1sc(-c2cccnc2)nc1Cl (stereo not shown) [Compound F5, N-(4-chloro-2-(pyridin-3-yl)thiazol-5-yl)-2,2-difluoro-N-(prop-2-yn-1-yl)cyclopropanecarboxamide] |  |  | 80 to 100% | 80 to 100%
C#CCN(C(=O)C(C)SC)c1sc(-c2cccnc2)nc1Cl (stereo not shown) [Compound F6, N-(4-chloro-2-(pyridin-3-yl)thiazol-5-yl)-2-(methylthio)-N-(prop-2-yn-1-yl)propanamide] |  |  | 80 to 100% | 80 to 100%
C#CCN(C(=O)CCSC)c1sc(-c2cccnc2)nc1Cl [Compound F7, N-(4-chloro-2-(pyridin-3-yl)thiazol-5-yl)-3-(methylthio)-N-(prop-2-yn-1-yl)propanamide] |  |  | 80 to 100% | 80 to 100%
C#CCN(C(=O)CCSCC1CC1(F)F)c1sc(-c2cccnc2)nc1Cl (stereo not shown) [Compound F8, N-(4-Chloro-2-(pyridin-3-yl)thiazol-5-yl)-3--(((2,2-difluorocyclopropyl)methyl)thio)-N-(prop-2-yn-1-yl)propanamide] |  |  | 80 to 100% | 80 to 100%
C#CCN(C(=O)C(C)CSC)c1sc(-c2cccnc2)nc1Cl (stereo not shown) [Compound F9, N-(4-chloro-2-(pyridin-3-yl)thiazol-5-yl)-2-methyl-3-(methylthio)-N-(prop-2-yn-1-yl)propanamide] |  |  | 80 to 100% | 80 to 100%
C#CCN(C(=O)CCSC)c1sc(-c2cccnc2)nc1C [Compound P1, N-(4-Methyl-2-(pyridin-3-yl)thiazol-5-yl)-3-(methylthio)-N-(prop-2-yn-1-yl)propanamide] |  |  | 80 to 100% | 80 to 100%
C#CCN(C(=O)C(C)CSC)c1sc(-c2cccnc2)nc1C (stereo not shown) [Compound P2, 2-Methyl-N-(4-methyl-2-(pyridin-3-yl)thiazol-5-yl)-3-(methylthio)-N-(prop-2-yn-1-yl) propanamide] |  |  | 80 to 100% | 80 to 100%
C#CCN(C(=O)CC[S+](C)[O-])c1sc(-c2cccnc2)nc1C (stereo not shown) [Compound P3, N-(4-Methyl-2-(pyridin-3-yl)thiazol-5-yl)-3-(methylsulfinyl)-N-(prop-2-yn-1-yl)propanamide] |  |  | 80 to 100% | 80 to 100%
C#CCN(C(=O)CCS(C)(=O)=O)c1sc(-c2cccnc2)nc1C [Compound P4, N-(4-Methyl-2-(pyridin-3-yl)thiazol-5-yl)-3-(methylsulfonyl)-N-(prop-2-yn-1-yl)propanamide] |  |  | 80 to 100% | 80 to 100%
C#CCN(C(=O)CCSCCC(F)(F)F)c1sc(-c2cccnc2)nc1C [Compound P6, N-(4-Methyl-2-(pyridin-3-yl)thiazol-5-yl)-N-(prop-2-yn-1-yl)-3-((3,3,3-trifluoropropyl)thio) propanamide] |  |  |  | 80 to 100%
C#CCN(C(=O)CC[S+]([O-])CCC(F)(F)F)c1sc(-c2cccnc2)nc1C (stereo not shown) [Compound P7, N-(4-Methyl-2-(pyridin-3-yl)thiazol-5-yl)-N-(prop-2-yn-1-yl)-3-((3,3,3-trifluoropropyl)sulfinyl) propanamide] |  |  | 80 to 100% | 80 to 100%
C#CCN(C(=O)CCS(=O)(=O)CCC(F)(F)F)c1sc(-c2cccnc2)nc1C [Compound P8, N-(4-Methyl-2-(pyridin-3-yl)thiazol-5-yl)-N-(prop-2-yn-1-yl)-3-((3,3,3-trifluoropropyl)sulfonyl) propanamide] |  |  | 80 to 100% | 80 to 100%
C#CCN(C(=O)CCSCC1CC1(F)F)c1sc(-c2cccnc2)nc1C (stereo not shown) [Compound P10, 3-(((2,2-Difluorocyclopropyl)methyl)thio)-N-(4-methyl-2-(pyridin-3-yl)thiazol-5-yl)-N-(prop-2-yn-1-yl)propanamide] |  |  | 80 to 100% | 80 to 100%
CC#CCN(C(=O)CCSCCC(F)(F)F)c1sc(-c2cccnc2)nc1C [Compound P16, N-(But-2-yn-1-yl)-N-(4-methyl-2-(pyridin-3-yl)thiazol-5-yl)-3-((3,3,3-trifluoropropyl)thio) propanamide] |  |  | 80 to 100% | 80 to 100%
CC#CCN(C(=O)CCSC)c1sc(-c2cccnc2)nc1C [Compound P17, N-(But-2-yn-1-yl)-N-(4-methyl-2-(pyridin-3-yl)thiazol-5-yl)-3-(methylthio)propanamide] |  |  | 80 to 100% | 80 to 100%
